Our source for the Kd values is PubChem BioAssay AID1033 (Sanford-Burnham Center for Chemical Genomics, 2008).

The structures appear in SMILES notation. The source made the active and inactive calls. The rule behind the calls is not given here.

Chain of Chaperone protein DnaK (Escherichia coli (strain K12)) (P0A6Y8 whole entry, looked up): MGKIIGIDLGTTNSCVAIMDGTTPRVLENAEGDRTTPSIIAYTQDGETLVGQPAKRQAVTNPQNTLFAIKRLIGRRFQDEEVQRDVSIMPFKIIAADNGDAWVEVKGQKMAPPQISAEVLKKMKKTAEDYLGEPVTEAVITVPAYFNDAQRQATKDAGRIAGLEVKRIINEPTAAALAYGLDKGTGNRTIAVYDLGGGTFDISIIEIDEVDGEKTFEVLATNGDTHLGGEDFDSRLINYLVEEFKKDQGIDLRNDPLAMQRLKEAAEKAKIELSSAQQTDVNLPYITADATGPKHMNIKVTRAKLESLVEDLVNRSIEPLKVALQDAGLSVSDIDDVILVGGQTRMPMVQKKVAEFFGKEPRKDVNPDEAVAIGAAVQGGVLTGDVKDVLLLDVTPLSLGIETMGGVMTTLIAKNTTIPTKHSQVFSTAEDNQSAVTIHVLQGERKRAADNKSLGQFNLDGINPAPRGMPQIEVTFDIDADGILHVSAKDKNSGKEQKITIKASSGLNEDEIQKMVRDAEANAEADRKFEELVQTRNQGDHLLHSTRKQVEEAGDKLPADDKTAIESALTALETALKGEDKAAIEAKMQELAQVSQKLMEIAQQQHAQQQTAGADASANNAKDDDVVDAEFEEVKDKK

This experiment has as its target Chaperone protein DnaK (Escherichia coli (strain K12)) (UniProt P0A6Y8). The experiment in a line: E. coli DnaK SBD ligand binding – biophysical, NMR, chaperone (AID 1033). The conditions noted are these: Purified DnaK SBD.
For `O=C1CS/C(=N/N=C/c2cccs2)N1`, the Kd (usually the free concentration of one partner at which half of the binding sites on the other are occupied at equilibrium, for simple one-to-one binding) was > 4 mM (inactive). To `Cc1c(C)c2c(c(C)c1O)CCC(C)(CCCC(C)CCCC(C)CCCC(C)C)O2` (configuration not stated) belongs > 4 mM (inactive); to `O=C(O)c1csc(-c2ccccc2)n1`, > 4 mM (inactive). On to `Cc1onc(-c2ccc(F)cc2)c1C(=O)O`, for which the Kd was > 4 mM (inactive). The figure for `COCC(=O)Nc1nc2ccc(C)cc2s1` is > 4 mM (inactive); for `CSc1ccccc1NC(=O)c1c(C)noc1C` it is > 4 mM (inactive); for `S=c1[nH]nc(-c2cccnc2)n1Cc1ccccc1` it is > 4 mM (inactive). To `Cc1noc(C)c1C(=O)Nc1ccccc1-c1ccccc1` belongs > 4 mM (inactive); to `CC1CCN(C(=O)c2ccc3c(c2)OCCO3)CC1`, > 4 mM (inactive); to `CC(=O)NC1C(=O)Nc2c(C)cc(C)cc21` (configuration not stated), > 4 mM (inactive). The figure for `O=C(O)C1CCN(S(=O)(=O)c2cccs2)CC1` is > 4 mM (inactive); for `Nc1ccc2sccc2c1` it is > 4 mM (inactive). For the molecule `Nc1ccc2c(c1)CCC2=O`, the Kd is > 4 mM (inactive). Regarding `CC(=O)N(C)Cc1nc2ccccc2n1C`, the Kd was > 4 mM (inactive).

On to `COC(=O)c1ccc(N2CCOCC2)nc1`, for which the Kd was > 4 mM (inactive). Turning to `CCOC(=O)C1CCN(Cc2ccccc2)CC1`, the Kd is > 4 mM (inactive).

For the molecule `CC(=O)Nc1nnc(-c2ccccc2)o1`, the Kd is > 4 mM (inactive). To `O=c1[nH]c(NCCO)nnc1Cc1ccccc1` belongs > 4 mM (inactive); to `O=C(O)c1ccc(N2CCOCC2)cc1`, > 4 mM (inactive).

With `O=C(O)c1ccc2ccccc2n1`, the Kd was > 4 mM (inactive).

Consider `O=C(O)c1[nH]nc2c1COc1ccccc1-2`, for which the Kd was > 4 mM (inactive). To `CNc1nc(OC)nc(N2CCOCC2)n1` belongs > 4 mM (inactive). To `NC(=O)CSc1ccc(-c2ccco2)nn1` belongs > 4 mM (inactive).

Regarding `NC(=O)c1ccc(-c2csnn2)cc1`, the Kd was > 4 mM (inactive). Regarding `Cc1cccc(N2C(=O)CC(=O)NC2=O)c1`, the Kd was > 4 mM (inactive). To `NC(=O)C1CC2C=CC1C2` (configuration not stated) belongs > 4 mM (inactive); to `NC(=O)C1CCN(CC2CC=CCC2)CC1` (configuration not stated), > 4 mM (inactive). The figure for `O=c1cc(-c2ccccc2)oc2cc(O)cc(O)c12` is > 4 mM (inactive). The figure for `CN1CCC(NC(=O)c2cccnc2)CC1` is > 4 mM (inactive). On to `CN1CCN(C(=O)C2CCCNC2)CC1` (configuration not stated), for which the Kd was > 4 mM (inactive). The figure for `O=C1CCC(=O)N1c1ccc(F)cc1` is > 4 mM (inactive); for `O=C1OC(N2CCOCC2)c2ccccc21` (configuration not stated) it is > 4 mM (inactive); for `S=C(c1ccc(N2CCOCC2)cc1)N1CCOCC1` it is > 4 mM (inactive). The figure for `CCNS(=O)(=O)c1cc(Br)ccc1OC` is > 4 mM (inactive); for `COc1ccc([C@@H](C)C(=O)c2ccc(O)cc2O)cc1` it is > 4 mM (inactive). `O=C(O)c1ccc2c(c1)CCO2`: the Kd is > 4 mM (inactive). To `CSc1ccccc1C(=O)N1CCOCC1` belongs > 4 mM (inactive); to `Cc1nc(-c2cnccn2)sc1C(=O)O`, > 4 mM (inactive). As to `COc1cc2c(c(OC)c1OC)-c1ccc(OC)c(=O)cc1[C@@H](NC(C)=O)CC2`, the Kd was > 4 mM (inactive). Consider `COc1ccc(C(=O)/C=C/c2ccccc2)cc1`, for which the Kd was > 4 mM (inactive). For `O=C(NCc1cccc2ccsc12)c1cccs1`, the Kd was less than 0.2 mM. To `Cc1cc(SCC(=O)Nc2nccs2)nc(=O)[nH]1` belongs > 4 mM (inactive); to `CC(=O)O[C@H]1CC[C@]2(C)C3CC[C@@]4(C)C(CC5O[C@@]6(CCC(C)CO6)[C@@H](C)C54)C3CC[C@@H]2C1` (some centres not stated), > 4 mM (inactive). To `O=C(O)CCCC(=O)Nc1nccs1` belongs > 4 mM (inactive).

Take `C=CCCCCCCCCCCCC(O)CC(O)COC(C)=O` (configuration not stated): the Kd is > 4 mM (inactive). To `COC(=O)N1CCN(c2ccc(OC)cc2)CC1` belongs > 4 mM (inactive).

`CC(=O)Nc1c(C)n(C)n(-c2ccccc2)c1=O`: the Kd is > 4 mM (inactive). To `N[C@@H](C(=O)O)[C@@H](O)[C@H](O)[C@H](O)CO` belongs > 4 mM (inactive); to `O=C1Cc2ccccc2N1c1ccccc1`, > 4 mM (inactive); to `Oc1ccc2c(c1)OCO2`, > 4 mM (inactive). As for `O=C(Nn1cnnc1)c1cc2c(s1)CCCCC2`, the Kd is > 4 mM (inactive).

In the case of `COC(=O)N1CCN(c2ccc(C(C)=O)cc2)CC1`, the Kd is > 4 mM (inactive). In the case of `O=C1CS/C(=N/S(=O)(=O)c2ccccc2)N1`, the Kd was > 4 mM (inactive). `O=C(Nc1nncs1)Oc1ccccc1`: the Kd is > 4 mM (inactive). The figure for `O=C(c1nc2ncccn2n1)N1CCc2ccccc2C1` is > 4 mM (inactive); for `NC(N)=NOCC[C@H](N)C(=O)O` it is > 4 mM (inactive). The figure for `CCOC(=O)c1c[nH]c2c(F)cccc2c1=O` is > 4 mM (inactive); for `Oc1cccc2[nH]ccc12` it is > 4 mM (inactive). Consider `O=C(CN1C(=O)CCC1=O)c1ccccc1`, for which the Kd is > 4 mM (inactive).

Regarding `O=C(O)c1ccc(N2CCCCC2)cc1`, the Kd was > 4 mM (inactive). The figure for `COc1cc(C(=S)N2CCCC2)cc(Cl)c1O` is > 4 mM (inactive).

As to `COc1ccccc1C(=O)NC1CCN(C)CC1`, the Kd was > 4 mM (inactive). As to `O=C(O)CSc1nnc(-c2cccs2)o1`, the Kd was > 4 mM (inactive).

Regarding `CC1(C)CCC(C)(C)c2cc(C(=O)O)ccc21`, the Kd was > 4 mM (inactive).

On to `COC(=O)CSc1n[nH]c(N)n1`, for which the Kd was > 4 mM (inactive). As to `O=C(Nc1nnc(-c2ccccc2Cl)o1)c1ccco1`, the Kd was > 4 mM (inactive).

With `O=C(COc1ccccc1O)NCCO`, the Kd is > 4 mM (inactive). In the case of `COc1cnn(-c2ccccc2)c(=O)c1N(C)C`, the Kd is > 4 mM (inactive). To `Cc1n[nH]c(C)c1N` belongs > 4 mM (inactive); to `CCOC(=O)CC1Sc2ccccc2NC1=S` (configuration not stated), > 4 mM (inactive). Consider `COC[C@]12CN(C=O)C3[C@@H]4[C@H](OC)C1[C@]3(C1CC3(O)C(OC)C(O)C4(OC(C)=O)C1C3OC(=O)c1ccccc1)[C@@H](OC)C[C@H]2O` (some centres not stated), for which the Kd was > 4 mM (inactive). For `O=C1c2ccccc2C(=O)N1/N=C/c1ccc[nH]1`, the Kd was > 4 mM (inactive).

Regarding `COc1ccccc1NC(=O)c1ccc(C)s1`, the Kd was > 4 mM (inactive).

For `COC(=O)C1=C(C)N(Cc2ccco2)C(=O)C1`, the Kd is > 4 mM (inactive).

As for `Cc1ccc(-c2cc(C(=O)N3CCCC3)no2)cc1`, the Kd was > 4 mM (inactive). For `Cc1ccccc1NC(=O)c1ccccc1`, the Kd result was “inactive”. The figure for `CC12CN(CC#N)CC(C)(CN(CC#N)C1)C2=O` is > 4 mM (inactive); for `CC(=O)c1c(C)nc(-c2cccs2)n1O` it is > 4 mM (inactive). For `NCc1cccc2c1OCCCO2`, the Kd is > 4 mM (inactive). To `CC(C)=CC1C(CO)C1(C)C` (configuration not stated) belongs > 4 mM (inactive); to `O=c1[nH]cc(S(=O)(=O)N2CCc3ccccc32)c(=O)[nH]1`, > 4 mM (inactive). To `Nc1cc(F)nc(F)n1` belongs > 4 mM (inactive); to `O=C1CNC(=O)N1Cc1ccc(Br)cc1`, > 4 mM (inactive); to `COC(=O)C1CSCC1=O` (configuration not stated), > 4 mM (inactive).

For `Nc1ccc(S(=O)(=O)Nc2nccs2)cc1`, the Kd was > 4 mM (inactive).

With `Nc1cc(C(=O)N2CCCC2)cc(C(=O)N2CCCC2)c1`, the Kd was > 4 mM (inactive). For the molecule `CC1=NN2C(=N)/C(=C\c3cccs3)C(=O)N=C2S1`, the Kd was > 4 mM (inactive). In the case of `O=c1c2ccccc2oc2ccccc12`, the Kd was > 4 mM (inactive). The figure for `CCC(C)C(=O)O[C@@H]1C[C@@]2(C)[C@H](c3ccoc3)OC(=O)CC23OC2(C)O[C@]14[C@]1(C)[C@@H](CC(=O)OC)C5(C)CC1(O)[C@](O)(C5OC(=O)C1(C)OC1C)[C@@H](OC(C)=O)[C@]34O2` (some centres not stated) is > 4 mM (inactive); for `O=C1CSC(=O)N1c1cccc(O)c1` it is > 4 mM (inactive); for `Cc1ccccc1NC(=O)N1CCOCC1` it is > 4 mM (inactive).

As for `Cc1sc2nc(C)n(NC(N)=O)c(=O)c2c1C`, the Kd is > 4 mM (inactive). The figure for `CCN1C(=O)c2c(C)nc3ccccc3c2C1=O` is > 4 mM (inactive); for `Nc1nc(-c2ccccc2)cc(=O)[nH]1` it is > 4 mM (inactive); for `Cc1nc(-c2ccccc2)ncc1CO` it is > 4 mM (inactive).

Regarding `CC(C)(C)NC(=O)N1CCC(C(=O)O)CC1`, the Kd is > 4 mM (inactive).

As for `C=C(C)C1Cc2c(ccc(C(=O)O)c2O)O1` (configuration not stated), the Kd is > 4 mM (inactive).

Consider `CN(C)C(=O)CSc1nc(N)cc(=O)[nH]1`, for which the Kd was > 4 mM (inactive).

In the case of `CCN1CCC(NC2CCCCNC2=O)CC1` (configuration not stated), the Kd is > 4 mM (inactive). The figure for `CCCCN1C(=O)N(C)C2NC(=O)NC21` (configuration not stated) is > 4 mM (inactive). To `CC1(C)Oc2ccc(N)cc2O1` belongs > 4 mM (inactive); to `CNc1nc(SC)nc(N2CCOCC2)n1`, > 4 mM (inactive); to `O=C1CCCC(=O)N1c1ccc(O)cc1`, > 4 mM (inactive). To `Cn1[nH]c2nc3[nH]n(C)c(=O)c3c(-c3ccccc3)c2c1=O` belongs > 4 mM (inactive); to `CCN(CC)C(=O)c1n[nH]c(=O)c2ccccc12`, > 4 mM (inactive). For the molecule `O=C1CCC(c2cccs2)=NN1`, the Kd is > 4 mM (inactive).

Take `CC1=NNC(=O)C1CCc1ccncc1` (configuration not stated): the Kd is > 4 mM (inactive).
